The values that follow come from patent publication US8933113B2 (Merck Sharp & Dohme Corp., priority 2011, dated 2015).

This assay concerns the target T1, full-length human Mineralocorticoid Receptor (MR) (Homo sapiens, UniProt P08235).
T1 construct: host or cells: PathHunter CHO-K1 cells
T1 sequence (P08235 1-984): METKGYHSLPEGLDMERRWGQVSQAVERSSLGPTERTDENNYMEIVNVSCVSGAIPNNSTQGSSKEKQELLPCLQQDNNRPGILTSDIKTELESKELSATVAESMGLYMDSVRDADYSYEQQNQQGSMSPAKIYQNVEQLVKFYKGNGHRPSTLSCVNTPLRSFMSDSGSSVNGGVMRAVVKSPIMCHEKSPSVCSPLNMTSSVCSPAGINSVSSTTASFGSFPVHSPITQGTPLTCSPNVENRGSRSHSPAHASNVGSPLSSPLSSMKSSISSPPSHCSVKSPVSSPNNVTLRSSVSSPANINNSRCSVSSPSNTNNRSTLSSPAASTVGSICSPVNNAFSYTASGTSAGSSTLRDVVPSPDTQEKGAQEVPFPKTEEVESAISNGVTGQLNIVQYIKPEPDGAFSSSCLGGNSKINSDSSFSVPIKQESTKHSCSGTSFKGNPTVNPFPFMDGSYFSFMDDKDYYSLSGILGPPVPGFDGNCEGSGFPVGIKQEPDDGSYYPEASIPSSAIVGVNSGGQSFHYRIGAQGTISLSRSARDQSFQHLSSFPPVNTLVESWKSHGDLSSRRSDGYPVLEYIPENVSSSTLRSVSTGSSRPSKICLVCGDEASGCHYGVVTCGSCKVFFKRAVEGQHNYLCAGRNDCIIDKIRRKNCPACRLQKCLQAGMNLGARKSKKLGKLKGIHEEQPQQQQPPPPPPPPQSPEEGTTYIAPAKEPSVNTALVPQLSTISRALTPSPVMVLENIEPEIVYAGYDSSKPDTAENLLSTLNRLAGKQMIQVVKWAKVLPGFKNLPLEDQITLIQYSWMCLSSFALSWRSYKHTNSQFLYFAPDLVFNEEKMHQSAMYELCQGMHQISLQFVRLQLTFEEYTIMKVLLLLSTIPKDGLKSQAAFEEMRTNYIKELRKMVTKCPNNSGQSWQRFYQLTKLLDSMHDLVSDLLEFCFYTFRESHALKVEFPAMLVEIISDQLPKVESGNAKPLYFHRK
The assay is described as follows: human MR NH Pro assay (PathHunter Protein:Protein interaction assay), MR antagonist activity. It is filed as cell-based. Particulars: PathHunter CHO-K1 cells overexpressing human MR; aldosterone about 0.3 nM; 6 hours at 37° C.; luminescence; read-out: Primary Assay IP rating (IP = inflection point for a given dose-response titration curve). The text has this: The activity of the compounds of the present invention regarding mineralocorticoid receptor antagonism can be evaluated using the following assay.
Assessment of MR Potency in HMR NH Pro Assay
The human MR NH Pro assay is a commercially available PathHunter™ Protein:Protein interaction assay (DiscoveRx; http://www.discoverx.com/nhrs/prod-nhrs.php) that measures the ability of compounds to antagonize full-length human Mineralocorticoid Receptor (MR) binding to a coactivator peptide.
6. Test compounds are titrated starting at 4.4 mM, 10-point titration in 1:3 dilution.
3. Add 5 μL 6× agonist (final aldosterone concentration should be about 0.3 nM to about 1.0 nM) to all wells (using the PlateMate Plus.)
• (ThermoFisher) (except those wells in columns 23 and 24) 4. Add 5 uL of assay media to all wells in column 23 and 24. 5. Incubate 6 hrs at 37° C., 5% CO2. 6. Add 15 uL 3× DiscoveRx detection reagent to each well. 7. Incubate 1 hour at room temperature (keep plates stored in the dark). 8. Read plates on Envision (PerkinElmer) luminesence plate reader and analyze using ADA.

As to `CCC(C=C(C)C#N)(c1ccc(Cl)cc1)n1ccc2c(NS(C)(=O)=O)cccc21` (mixture of isomers) [Compound 131, N-(1-(3-(4-chlorophenyl)-5-cyanohex-4-en-3-yl)-1H-indol-4-yl)methanesulfonamide], the IC50 is less than 100 nM.
As to `CCC(CO)(c1ccc(Cl)cc1)n1ncc2c(NS(C)(=O)=O)cccc21` (single isomer, unassigned) [Compound 88, N-(1-(2-(4-chlorophenyl)-1-hydroxybutan-2-yl)-1H-indazol-4-yl)methanesulfonamide], the IC50 was less than 100 nM.
Then `CCC(c1ccc(Cl)cc1)(n1ccc2c(NS(C)(=O)=O)cc(F)cc21)C(C)(C)O` (single isomer, unassigned) [Compound 90, N-(1-(3-(4-chlorophenyl)-2-hydroxy-2-methylpentan-3-yl)-6-fluoro-1H-indol-4-yl)methane sulfonamide], with less than 100 nM.
Consider `CCC(c1ccc(Cl)cc1)(n1ccc2c(NS(C)(=O)=O)cccc21)C(C)(C)O` (single isomer, unassigned) [Compound 91, N-(1-(3-(4-chlorophenyl)-2-hydroxy-2-methylpentan-3-yl)-1H-indol-4-yl)methane sulfonamide], for which the IC50 is less than 100 nM.
Turning to `CCC(c1ccc(Cl)cc1)(n1ncc2c(NS(C)(=O)=O)cccc21)C(C)(C)O` (single isomer, unassigned) [Compound 92, N-(1-(3-(4-chlorophenyl)-2-hydroxy-2-methylpentan-3-yl)-1H-indazol-4-yl)methane sulfonamide], the IC50 is less than 100 nM.
The result for `CCC(c1ccc(C(F)(F)F)cc1)(n1ncc2c(NS(C)(=O)=O)cccc21)C(C)(C)O` (single isomer, unassigned) [Compound 93, N-(1-(2-hydroxy-2-methyl-3-(4-(trifluoromethyl)phenyl)pentan-3-yl)-1H-indazol-4-yl)methane sulfonamide] reads less than 100 nM; that for `CCC(COC)(c1ccc(Cl)cc1)n1ccc2c(NS(C)(=O)=O)cccc21` (single isomer, unassigned) [Compound 96, N-(1-(2-(4-chlorophenyl)-1-methoxybutan-2-yl)-1H-indol-4-yl)methanesulfonamide], less than 100 nM.
As to `CCC(COC)(c1ccc(Cl)cc1)n1ncc2c(NS(C)(=O)=O)cccc21` (single isomer, unassigned) [Compound 97, N-(1-(2-(4-chlorophenyl)-1-methoxybutan-2-yl)-1H-indazol-4-yl)methanesulfonamide], the IC50 is less than 100 nM.
As to `CCC(C(C)=O)(c1ccc(Cl)cc1)n1ncc2c(NS(C)(=O)=O)cccc21` (single isomer, unassigned) [Compound 100, N-(1-(3-(4-chlorophenyl)-2-oxopentan-3-yl)-1H-indazol-4-yl)methanesulfonamide], the IC50 was less than 100 nM.
In the case of `CCC(C(C)=O)(c1ccc(Cl)cc1)n1ncc2c(NS(C)(=O)=O)cccc21` (single isomer, unassigned) [Compound 101, N-(1-(3-(4-chlorophenyl)-2-oxopentan-3-yl)-1H-indazol-4-yl)methanesulfonamide], the IC50 fell in the range of 100 to 500 nM.
For the compound `CCC(C(C)=O)(c1ccc(C(F)(F)F)cc1)n1ccc2c(NS(C)(=O)=O)cccc21` (single isomer, unassigned) [Compound 102, N-(1-(2-oxo-3-(4-(trifluoromethyl)phenyl)pentan-3-yl)-1H-indol-4-yl)methanesulfonamide], the IC50 fell in the range of 100 to 500 nM.
The result for `CCC(C(C)=O)(c1ccc(C(F)(F)F)cc1)n1ccc2c(NS(C)(=O)=O)cccc21` (single isomer, unassigned) [Compound 103, N-(1-(2-oxo-3-(4-(trifluoromethyl)phenyl)pentan-3-yl)-1H-indol-4-yl)methanesulfonamide] reads 100 to 500 nM; that for `CCC(C(C)=O)(c1ccc(C(F)(F)F)cc1)n1ncc2c(NS(C)(=O)=O)cccc21` (single isomer, unassigned) [Compound 104, N-(1-(2-oxo-3-(4-(trifluoromethyl)phenyl)pentan-3-yl)-1H-indazol-4-yl)methanesulfonamide], 100 to 500 nM.
With `CCC(c1ccc(Cl)cc1)(C(C)O)n1ncc2c(NS(C)(=O)=O)cccc21` (single isomer, unassigned) [Compound 106], the IC50 is less than 100 nM.
Take `CCC(c1ccc(Cl)cc1)(C(C)O)n1ncc2c(NS(C)(=O)=O)cccc21` (single isomer, unassigned) [Compound 107]: the IC50 was less than 100 nM.
Then `CCC(c1ccc(Cl)cc1)(C(C)O)n1ccc2c(NS(C)(=O)=O)cccc21` (single isomer, unassigned) [Compound 108, N-(1-(3-(4-chlorophenyl)-2-hydroxypentan-3-yl)-1H-indol-4-yl)methanesulfonamide], with less than 100 nM.
As to `CCC(c1ccc(Cl)cc1)(C(C)O)n1ccc2c(NS(C)(=O)=O)cccc21` (single isomer, unassigned) [Compound 109, N-(1-(3-(4-chlorophenyl)-2-hydroxypentan-3-yl)-1H-indol-4-yl)methanesulfonamide], the IC50 was less than 100 nM.
Then `CCC(c1ccc(Cl)cc1)(C(C)O)n1ccc2c(NS(C)(=O)=O)cc(F)cc21` (single isomer, unassigned) [Compound 111, N-(1-(3-(4-chlorophenyl)-2-hydroxypentan-3-yl)-6-fluoro-1H-indol-4-yl)methanesulfonamide], with less than 100 nM; and `CCC(c1ccc(C(F)(F)F)cc1)(C(C)O)n1ccc2c(NS(C)(=O)=O)cccc21` (single isomer, unassigned) [Compound 113, N-(1-(2-hydroxy-3-(4-(trifluoromethyl)phenyl)pentan-3-yl)-1H-indol-4-yl)methanesulfonamide], with less than 100 nM.
Turning to `CCC(c1ccc(C(F)(F)F)cc1)(C(C)O)n1ccc2c(NS(C)(=O)=O)cccc21` (single isomer, unassigned) [Compound 114, N-(1-(2-hydroxy-3-(4-(trifluoromethyl)phenyl)pentan-3-yl)-1H-indol-4-yl)methanesulfonamide], the IC50 is less than 100 nM.
For the compound `CCC(c1ccc(C(F)(F)F)cc1)(C(C)O)n1ncc2c(NS(C)(=O)=O)cccc21` (single isomer, unassigned) [Compound 115, N-(1-(2-hydroxy-3-(4-(trifluoromethyl)phenyl)pentan-3-yl)-1H-indazol-4-yl)methanesulfonamide], the IC50 is less than 100 nM.
Consider `CCC(c1ccc(C(F)(F)F)cc1)(C(C)O)n1ncc2c(NS(C)(=O)=O)cccc21` (single isomer, unassigned) [Compound 116, N-(1-(2-hydroxy-3-(4-(trifluoromethyl)phenyl)pentan-3-yl)-1H-indazol-4-yl)methanesulfonamide], for which the IC50 was less than 100 nM.
Turning to `CCC(c1ccc(C(F)(F)F)cc1)(C(C)O)n1ncc2c(NS(C)(=O)=O)cccc21` (single isomer, unassigned) [Compound 117, N-(1-(2-hydroxy-3-(4-(trifluoromethyl)phenyl)pentan-3-yl)-1H-indazol-4-yl)methanesulfonamide], the IC50 is less than 100 nM.
With `CCC(CC#N)(c1ccc(Cl)cc1)n1ccc2c(NS(C)(=O)=O)cccc21` (single isomer, unassigned) [Compound 121, N-(1-(2-(4-chlorophenyl)-1-cyanobutan-2-yl)-1H-indol-4-yl)methanesulfonamide], the IC50 is less than 100 nM.
On to `CCC(CC#N)(c1ccc(Cl)cc1)n1ccc2c(NS(C)(=O)=O)cccc21` (single isomer, unassigned) [Compound 122, N-(1-(2-(4-chlorophenyl)-1-cyanobutan-2-yl)-1H-indol-4-yl)methanesulfonamide], for which the IC50 was less than 100 nM.
In the case of `CCC(CC#N)(c1ccc(Cl)cc1)n1ncc2c(NS(C)(=O)=O)cccc21` (single isomer, unassigned) [Compound 123, N-(1-(2-(4-chlorophenyl)-1-cyanobutan-2-yl)-1H-indazol-4-yl)methanesulfonamide], the IC50 is less than 100 nM.
